Assay results as given in patent publication EP4653451A1, “POLYPEPTIDE COMPOUND AND USE THEREOF” (Chengdu New Radiomedicine Technology Co., Ltd., priority 2023, dated 2024).
Where a name gives a salt, the structure may show the parent alone. Read-outs that look alike come from different tables or passages of the source. Numbered stars: 1 amine (or outer) side, 2 acyl side, 3 side chain; on linkers, the order of the positions; unused ones are H or OH. Bridge positions count the residues as written; N and C are the ends. Square brackets hold non-standard residues; d marks the D form. Peptide text beside a SMILES is read from it. * marks the point of attachment. X1 = O=C(O)CN1CCN(CC(=O)O)CCN(CC(=O)NCCSCc2cc(CSC[C@@H](CNC(=O)C3CCCC3)N[*:2])cc(C[*:1])c2)CCN(CC(=O)O)CC1; TBMB(SCH2CH2NH-DOTA) = O=C(O)CN1CCN(CC(=O)O)CCN(CC(=O)NCCSCc2cc(C[*:1])cc(C[*:2])c2)CCN(CC(=O)O)CC1; 1Nal = N[C@@H](Cc1cccc2ccccc12)C(=O)O; β3hC = N[C@@H](CS)CC(=O)O; Hexanoyl = CCCCCC(=O)*

Columns and labels:
HEK293-FAP cells = assay: Distribution in tissues of HEK293-FAP tumor-bearing mice (gamma counter); assay type: in vivo, SCID mice; settings: for injection dose%/g tissue at different time points / tissue selectivity for kidney and blood tissues: mouse, in vivo; for Blood / Kidney / Tumor: 100 µCi, SCID mice with HEK293-FAP tumor
Protocol: (§1) Male SCID mice (6-8 weeks old) were subcutaneously inoculated with 5 × 10^6 HEK293-FAP cells (FAP was highly expressed in HEK293 cells). 10 days later, 30 mice with tumor size of 200-300 mm^3 were randomly divided into 3 groups. Each mouse in the 3 groups was administered with compound ^177Lu-3BP-3554, compound 29 and compound 30 with a radiation dose of 100 µCi, respectively. Blood, kidney and tumor tissues were collected at time points of 4 h, 8 h, 24 h, 72 h and 168 h, and all blood samples and tissue samples were measured for radioactive counts by gamma counter.

[1] = as above; assay type: in vivo, SCID mice; settings: male, SCID, mouse, in vivo, 100 uCi, total radioactivity
Protocol: as §1

[2] = target: T1, human recombinant DPP4 protein (Homo sapiens, UniProt P27487); assay: Inhibitory activity against DPP4 protease activity (H-Gly-Pro-AMC fluorescence); assay type: biochemical; settings: 125 pM DPP4 working solution, 90 min at room temperature
T1 construct: purchased Acrobiosystems DP4-H5211
Protocol: The human recombinant DPP4 protein (Acrobiosystems, DP4-H5211) was formulated into a 125 pM working solution with an assay buffer (20 mM Tris-HCl, 100 mM NaCl), and the DPP4 substrate (H-Gly-Pro-AMC.HBr (LEONBIO, 115035-46-6)) was diluted to a 250 µM DPP4 substrate working solution with the assay buffer. 40 µl of DPP4 working solution and 20 µl of compounds at different concentrations (4-fold dilution) were taken, then 40 µl of DPP4 substrate working solution was added, and the mixture was uniformly mixed on a shaker at room temperature for 1 min. The uniformly mixed mixture was reacted at room temperature in the dark for 90 min. Reading was made by microplate reader at excitation and emission wavelengths of 380 nm and 460 nm. The original data was saved, and the IC50 value of the compound was obtained by analyzing the data with Graphpad PRISM.

in vitro = settings: CD-1, mouse, plasma
Protocol: The plasma stability experiment was performed using plasma from CD-1 mice. The compounds were diluted to a concentration of 1 mM with methanol. To 0.792 mL of plasma, 8.00 µL of 1 mM of each test compound was added, and 50.0 µL of the plasma sample was taken after uniform mixing. The remaining sample was placed in a 37°C water bath and incubated for 24 h. […] After centrifugation, the sample was diluted 1-fold with 0.2% trifluoroacetic acid and analyzed by LC-MS/MS.

[3] = Pharmacokinetics after tail vein injection; assay type: in vivo, CD-1 mice; settings: iv, 0.2 mg/kg
Protocol: Male CD-1 mice weighing 30-35 g were selected, and a test compound was injected into the tail vein at 0.2 mg/kg. Plasma samples were collected at 5, 15, 30, and 60 min and 2, 4, 8, and 24 h after administration and processed accordingly. The drug content was analyzed by LC-MS/MS.
Among them, compounds 20, 21 and 22 were compounds formed by chelating nonradioactive in with compounds 11, 14 and 16, respectively.

[4] = target: T2, human recombinant FAP protein (Homo sapiens, UniProt Q12884); assay: Inhibitory activity against FAP protease activity (Z-Gly-Pro-AMC fluorescence); assay type: biochemical; settings: 125 pM FAP working solution, 90 min at room temperature; read-out: FAP IC50
T2 construct: purchased Acrobiosystems FAP-H82Q6
T2 sequence (Q12884 1-760): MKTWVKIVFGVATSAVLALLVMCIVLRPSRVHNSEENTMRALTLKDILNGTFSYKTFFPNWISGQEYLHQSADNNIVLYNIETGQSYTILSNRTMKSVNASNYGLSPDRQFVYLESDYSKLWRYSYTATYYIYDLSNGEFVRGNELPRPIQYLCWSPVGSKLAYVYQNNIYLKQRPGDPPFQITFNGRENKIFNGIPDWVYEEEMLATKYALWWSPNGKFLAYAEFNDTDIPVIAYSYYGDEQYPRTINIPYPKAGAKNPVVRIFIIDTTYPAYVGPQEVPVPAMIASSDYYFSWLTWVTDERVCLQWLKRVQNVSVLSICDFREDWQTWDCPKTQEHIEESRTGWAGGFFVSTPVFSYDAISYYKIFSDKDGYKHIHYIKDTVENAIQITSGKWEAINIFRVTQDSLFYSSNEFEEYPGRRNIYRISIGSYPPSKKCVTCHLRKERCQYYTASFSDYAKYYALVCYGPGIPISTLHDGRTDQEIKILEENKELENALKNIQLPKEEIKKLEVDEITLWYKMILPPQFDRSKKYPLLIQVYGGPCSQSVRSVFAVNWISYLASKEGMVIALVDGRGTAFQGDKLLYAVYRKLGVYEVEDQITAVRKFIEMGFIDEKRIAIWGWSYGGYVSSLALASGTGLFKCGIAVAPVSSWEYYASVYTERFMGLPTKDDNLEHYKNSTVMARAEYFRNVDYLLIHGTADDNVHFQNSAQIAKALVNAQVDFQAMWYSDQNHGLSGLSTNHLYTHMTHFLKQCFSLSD
Protocol: The human recombinant FAP protein (Acrobiosystems, FAP-H82Q6) was diluted to a 125 pM FAP working solution with an assay buffer (50 mM Tris-HCl, 1 M NaCl, 1 mg/mL BSA, pH 7.5), and the FAP substrate (Z-Gly-Pro-AMC (LEONBIO, 68542-93-8)) was diluted to a 150 µM substrate working solution with the assay buffer. 40 µl of FAP working solution and 20 µl of compounds at different concentrations (4-fold dilution) were taken, then 40 µl of substrate working solution was added, and the mixture was uniformly mixed on a shaker at room temperature for 1 min. The uniformly mixed mixture was reacted at room temperature in the dark for 90 min. The fluorescence value Ex = 380 nm/Em = 460 nm was read by using a microplate reader. The original data was saved, and the IC50 value of the compound was obtained by using the original data or the Inhibition% via calculation and analyzing the data with Graphpad PRISM.

T1 sequence (P27487 whole entry): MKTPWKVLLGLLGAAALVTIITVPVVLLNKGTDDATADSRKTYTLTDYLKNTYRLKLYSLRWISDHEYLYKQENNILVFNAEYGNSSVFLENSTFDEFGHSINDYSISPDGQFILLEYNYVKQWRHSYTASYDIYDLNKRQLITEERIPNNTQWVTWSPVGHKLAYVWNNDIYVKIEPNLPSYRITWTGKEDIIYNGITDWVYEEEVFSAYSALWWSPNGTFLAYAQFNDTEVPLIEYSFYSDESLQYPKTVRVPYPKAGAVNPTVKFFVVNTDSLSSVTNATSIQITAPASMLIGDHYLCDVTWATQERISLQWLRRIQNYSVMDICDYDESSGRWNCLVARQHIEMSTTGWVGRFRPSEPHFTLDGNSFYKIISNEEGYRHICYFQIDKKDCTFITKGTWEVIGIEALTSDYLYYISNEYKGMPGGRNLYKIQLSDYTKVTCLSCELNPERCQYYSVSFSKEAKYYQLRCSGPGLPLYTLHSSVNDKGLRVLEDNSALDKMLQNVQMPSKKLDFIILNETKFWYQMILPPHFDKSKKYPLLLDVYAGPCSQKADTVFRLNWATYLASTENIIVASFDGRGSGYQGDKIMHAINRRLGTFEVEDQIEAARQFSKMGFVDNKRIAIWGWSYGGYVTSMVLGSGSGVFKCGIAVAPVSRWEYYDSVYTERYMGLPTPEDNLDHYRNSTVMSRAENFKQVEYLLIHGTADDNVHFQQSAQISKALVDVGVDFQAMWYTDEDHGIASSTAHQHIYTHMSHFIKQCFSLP

CCCCCC(=O)N[C@H]1CSCc2cccc(c2F)CSC[C@@H](CNC(=O)C[C@@H](C)NC(=O)[C@H]2CC[C@H](CNC(=O)CN3CCN(CC(=O)O)CCN(CC(=O)O)CCN(CC(=O)O)CC3)CC2)NC(=O)[C@H](Cc2ccccc2)NC(=O)[C@H](CCC(N)=O)NC(=O)[C@H]([C@@H](C)O)NC(=O)[C@@H]2CCCN2C(=O)[C@@H]2CCCN2C1=O [Compound 30]
injection dose%/g tissue at different time points (HEK293-FAP cells): significantly higher than that of ^177Lu-3BP-3554
tissue selectivity for kidney and blood tissues (HEK293-FAP cells): better tissue selectivity for kidney and blood tissues than ^177Lu-3BP-3554
tissue to tissue ratio at 4 h ([1]; Tumor/blood): 16.3
tissue to tissue ratio at 8 h ([1]; Tumor/blood): 32.3
tissue to tissue ratio at 24 h ([1]; Tumor/blood): 212
tissue to tissue ratio at 72 h ([1]; Tumor/blood): 1100
tissue to tissue ratio at 168 h ([1]; Tumor/blood): 484
tissue to tissue ratio at 4 h ([1]; Tumor/kidney): 6.88
tissue to tissue ratio at 8 h ([1]; Tumor/kidney): 5.56
tissue to tissue ratio at 24 h ([1]; Tumor/kidney): 5.95
tissue to tissue ratio at 72 h ([1]; Tumor/kidney): 6.98
tissue to tissue ratio at 168 h ([1]; Tumor/kidney): 11.8

CCCCCC(=O)N[C@H]1CSCc2cc(CSCCNC(=O)CN3CCN(CC(=O)O)CCN(CC(=O)O)CCN(CC(=O)O)CC3)cc(c2)CSC[C@@H](CC(=O)O)NC(=O)[C@H](Cc2cccc3ccccc23)NC(=O)[C@H](CCC(N)=O)NC(=O)[C@H]([C@@H](C)O)NC(=O)[C@@H]2CCCN2C(=O)[C@@H]2CCCN2C1=O [Compound 29] (Hexanoyl-CPPTQ[1Nal][β3hC]-OH; linker 1-7 via TBMB(SCH2CH2NH-DOTA))
injection dose%/g tissue at different time points (HEK293-FAP cells): significantly higher than that of ^177Lu-3BP-3554
tissue selectivity for kidney and blood tissues (HEK293-FAP cells): better tissue selectivity for kidney and blood tissues than ^177Lu-3BP-3554
tissue to tissue ratio at 4 h ([1]; Tumor/blood): 26.2
tissue to tissue ratio at 8 h ([1]; Tumor/blood): 70.1
tissue to tissue ratio at 24 h ([1]; Tumor/blood): 1630
tissue to tissue ratio at 72 h ([1]; Tumor/blood): 2410
tissue to tissue ratio at 168 h ([1]; Tumor/blood): 1160
tissue to tissue ratio at 4 h ([1]; Tumor/kidney): 2.32
tissue to tissue ratio at 8 h ([1]; Tumor/kidney): 3.18
tissue to tissue ratio at 24 h ([1]; Tumor/kidney): 3.99
tissue to tissue ratio at 72 h ([1]; Tumor/kidney): 7.12
tissue to tissue ratio at 168 h ([1]; Tumor/kidney): 27.6

CCCCCC(=O)N[C@H]1CSCc2cc(CSCCNC(=O)CN3CCN(CC(=O)O)CCN(CC(=O)O)CCN(CC(=O)O)CC3)cc(c2)CSC[C@@H](C(=O)O)NC(=O)[C@H](Cc2ccccc2)NC(=O)[C@H](CCC(N)=O)NC(=O)[C@H]([C@@H](C)O)NC(=O)[C@@H]2CCCN2C(=O)[C@@H]2CCCN2C1=O [Compound 3BP-3554, reference compound]
IC50 [2]: > 10000 nM
remaining at 24 h, 10 µM (in vitro): 87%

CCCCCC(=O)N[C@H]1CSCc2cc(CSCCNC(=O)CN3CCN(CC(=O)O)CCN(CC(=O)O)CCN(CC(=O)O)CC3)cc(c2)CSC[C@@H](C(=O)O)NC(=O)[C@H](Cc2ccccc2)NC(=O)[C@H](CCC(N)=O)NC(=O)[C@H]([C@@H](C)O)NC(=O)[C@@H]2CCCN2C(=O)[C@@H]2CCCN2C1=O [^177Lu-3BP-3554, metal not drawn, reference compound]
Blood (HEK293-FAP cells; 4 h): 0.07 ID %/g
Kidney (HEK293-FAP cells; 4 h): 6.65 ID %/g
Tumor (HEK293-FAP cells; 4 h): 21.21 ID %/g
Blood (HEK293-FAP cells; 8 h): 0.02 ID %/g
Kidney (HEK293-FAP cells; 8 h): 6.37 ID %/g
Tumor (HEK293-FAP cells; 8 h): 18.42 ID %/g
Blood (HEK293-FAP cells; 24 h): 0.01 ID %/g
Kidney (HEK293-FAP cells; 24 h): 2.92 ID %/g
Tumor (HEK293-FAP cells; 24 h): 10.37 ID %/g
Blood (HEK293-FAP cells; 72 h): 0.0038 ID %/g
Kidney (HEK293-FAP cells; 72 h): 0.86 ID %/g
Tumor (HEK293-FAP cells; 72 h): 5.05 ID %/g
Blood (HEK293-FAP cells; 168 h): 0.0091 ID %/g
Kidney (HEK293-FAP cells; 168 h): 0.16 ID %/g
Tumor (HEK293-FAP cells; 168 h): 1.52 ID %/g

CCCCCC(=O)N[C@H]1CSCc2cc(CSCCNC(=O)CN3CCN(CC(=O)O)CCN(CC(=O)O)CCN(CC(=O)O)CC3)cc(c2)CSC[C@@H](C(=O)O)NC(=O)[C@H](Cc2ccccc2)NC(=O)[C@H](CCC(N)=O)NC(=O)[C@H]([C@@H](C)O)NC(=O)[C@@H]2CCCN2C(=O)[C@@H]2CCCN2C1=O [Compound 3BP-3623, reference compound]
AUC(0-t) ([3]; mouse, plasma, male CD-1 mice, tail vein, read-out: AUC0-t): 195 ng·h/mL
clearance ([3]; mouse, plasma, male CD-1 mice, tail vein, read-out: Cl (converted)): 17 mL/min/kg
Cmax ([3]; mouse, plasma, male CD-1 mice, tail vein, read-out: Cmax): 594 ng/mL
half-life ([3]; mouse, plasma, male CD-1 mice, tail vein, read-out: T1/2 (converted)): 22.2 min
Vd ([3]; mouse, plasma, male CD-1 mice, tail vein, read-out: Vss): 0.24 L/kg

CCCCCC(=O)N[C@H]1CSCc2cc(CSCCNC(=O)CN3CCN(CC(=O)O)CCN(CC(=O)O)CCN(CC(=O)O)CC3)cc(c2)CSC[C@@H](CC(=O)N[C@@H](Cc2ccc3ccccc3c2)C(=O)O)NC(=O)[C@H](Cc2ccccc2)NC(=O)[C@H](CCC(N)=O)NC(=O)[C@H]([C@@H](C)O)NC(=O)[C@@H]2CCCN2C(=O)[C@@H]2CCCN2C1=O [Compound 13, Hex-Cys-Pro-Pro-Thr-Gln-Phe-beta-HomoCys-2Nal (Cys bridge TBMB (DOTA-AET)) trifluoroacetate]
IC50 [2]: > 10000 nM
remaining at 24 h, 10 µM (in vitro): 100%
IC50 [4]: 0.97 nM

CCCCCC(=O)N[C@H]1CSCc2cc(CSCCNC(=O)CN3CCN(CC(=O)O)CCN(CC(=O)O)CCN(CC(=O)O)CC3)cc(c2)CSC[C@@H](CC(=O)O)NC(=O)[C@H](Cc2cccc3ccccc23)NC(=O)[C@H](CCC(N)=O)NC(=O)[C@H]([C@@H](C)O)NC(=O)[C@@H]2CCCN2C(=O)[C@@H]2CCCN2C1=O [Compound 11, Hex-Cys-Pro-Pro-Thr-Gln-1Nal-beta-HomoCys (Cys bridge TBMB (DOTA-AET)) trifluoroacetate] (Hexanoyl-CPPTQ[1Nal][β3hC]-OH; linker 1-7 via TBMB(SCH2CH2NH-DOTA))
IC50 [2]: > 10000 nM
remaining at 24 h, 10 µM (in vitro): 94%
IC50 [4]: 0.26 nM

CCCCCC(=O)N[C@H]1CSCc2cc(CSCCNC(=O)CN3CCN(CC(=O)O)CCN(CC(=O)O)CCN(CC(=O)O)CC3)cc(c2)CSC[C@@H](CNC(=O)C2CCCC2)NC(=O)[C@H](Cc2ccccc2)NC(=O)[C@H](CCC(N)=O)NC(=O)[C@H]([C@@H](C)O)NC(=O)[C@@H]2CCCN2C(=O)[C@@H]2CCCN2C1=O [Compound 21] (Hexanoyl-CPPTQF; linker 1-C via X1)
AUC(0-t) ([3]; male, CD-1, mouse, in vivo): 634 ng·h/mL
Cmax ([3]; male, CD-1, mouse, in vivo): 1010 ng/mL
Vd ([3]; male, CD-1, mouse, in vivo): 0.22 L/kg
clearance ([3]; male, CD-1, mouse, in vivo): 5.17 mL/min/kg
half-life ([3]; male, CD-1, mouse, in vivo): 75.6 min
